System: S-180 cells
From the text: Healthy adult male mice of BALB/c strain (hereinafter, “animals”) weighing between 18 to 22 g were selected randomly. The animals were divided in to six groups. Each animal was identified by color marking. Each cage was identified by a label according to the group. The label contained the name of experiment, number of mice in that cage, dose (mg/kg) and date of initiation and completion of experiment. The groups received treatments for a period of 15 days. On Day 16, samples of blood were withdrawn, under anesthesia, from orbital sinus of the animals. The samples were collected in tubes containing Heparin as an anticoagulant.
Group I was treated as vehicle control and received vehicle (Corn oil) orally, in equal volume as in treatment groups. Group II received only tumor cells (1×10^6 cells) intra-peritoneally. Group III received tumor cells (1×10^6 cells) and cyclophosphamide (150 mg/kg body weight) intra-peritoneally. Group IV and Group V received Tumor cells and BV-3115 at 100 mg/kg body weight and 250 mg/kg body weight respectively.
A group of male mice approximately 7-8 weeks old and weighing between 18-22 gm were used for this study. Animal room temperature & relative humidity were maintained at 22-30 C. and 30-70% respectively. All mice were given free access to purified water (Purified with Aquaguard) & standard pelleted laboratory animal feed. After acclimation period of 7 days, each animal was weighed and then the animals were randomly selected according to body weights and allocated to the different treatment groups, so that mean body weights of groups were not statistically different before starting the experiment. Tumor implantation with S-180 cells 1×10^6 cells I.P. to all groups except group I (sham control no tumor, no drug).

[1] = all treatment groups, Day 16 blood

O=P1(N(CCCl)CCCl)NCCCO1 (stereo not drawn) [cyclophosphamide]
mortality (BALB/c mice, 15 days, cyclophosphamide 150 mg/kg i.p., BV-3115 100 and 250 mg/kg, combination with BV-3115 100 mg/kg): No mortality
body weight compared to Group I (Group III, cyclophosphamide 150 mg/kg i.p., P<0.05): normal weight gain till Day 10, thereafter sudden decrease in weights
body weight on day 15 (S-180 cells 1×106 I.P., vs sham control / tumor group): reduced the body weight alarmingly lower than sham control
platelets compared with Group I (vehicle control) (all treatment groups): comparable to Group I
body weight compared to Group II (tumor cells only) (all treatment groups (III, IV, V and VI)): significant decrease in body weight
RBC count [1]: increased in varying degrees
hemoglobin content [1]: increased in varying degrees
white blood cells compared with Group II (group III (cyclophosphamide) and VI (combination), P<0.05): statistically significant decrease in white blood cells
clinical signs (other groups: cyclophosphamide 150 mg/kg, BV-3115 100 mg/kg, combination): No clinically abnormal signs

Reference: patent publication US20170119835A1, “METHOD OF MAKING AN ADJUNCT TO […] OF RIBOSOMAL FUNCTIONS IN TUMOR CELLS AND PREVENT BODY WEIGHT LOSS DURING CYCLOP[…] THERAPY” (priority 2009, published 2017)
